{"source": "patent US11484535B2", "about": "“Liquid formulations of (S)-N-(5-((R)-2-(2,5-difluorophenyl)-pyrrolidin-1-yl)-pyrazolo[1,5-a] pyrimidin-3-yl)-3-hydroxypyrrolidine-1-carboxamide” (Loxo Oncology, Inc., priority 2016, dated 2022)", "key": {"[1]": {"tested_on": "Infantile Fibrosarcoma with NTRK3-ETV6 Fusion", "experiment": "Phase 1 pediatric dose-escalation study (NCT02637687), oral liquid formulation of Compound I-HS, case of one patient"}, "[2]": {"experiment": "Dynamic vapor sorption (DVS) isotherm, hygroscopicity", "type": "physicochemical", "protocol": "For the DVS measurement a sample of crystalline form (I-HS) was cycled through changing humidity conditions to determine its hygroscopicity. The sample was analyzed using a Surface Measurement System DVS-1 Dynamic Vapor Sorption System. […] Data was collected in 1 minute intervals. Nitrogen was used as the carrier gas. […] After completion of the sorption cycle, the sample was dried using the same procedure, but all the way down to 0% RH and finally taken back to the starting point of 20% RH. The weight change during the sorption/desorption cycles were plotted, allowing for the hygroscopic nature of the sample to be determined.\nA small increase in mass of about 1.7% was observed between 0% and 90% RH during the sorption cycle."}, "[3]": {"experiment": "Accelerated stability study in an LDPE bag at 40° C./75% RH for five weeks", "type": "physicochemical"}}, "note": "Structures can show the parent of a compound that is named as a salt."}
{"compound": "O=C(Nc1cnn2ccc(N3CCC[C@@H]3c3cc(F)ccc3F)nc12)N1CC[C@H](O)C1", "note": "[Compound I-HS, (S)—N-(5-((R)-2-(2,5-difluorophenyl)-pyrrolidin-1-yl)-pyrazolo[1,5-a]pyrimidin-3-yl)-3-hydroxypyrrolidine-1-carboxamide hydrogen sulfate]", "values": [{"measurement": "reduction in the size and enhancement of the mass from baseline", "setting": "[1]; MR of the brain and neck, end of cycle 1 (day 28), BID dosing, patient", "result": "more than 90%"}, {"measurement": "response on repeat scans", "setting": "[1]; end of Cycle 2, MR of the brain and neck", "result": "partial response"}, {"measurement": "adverse events related to the compound", "setting": "[1]; first two cycles (28-day cycles)", "result": "no adverse events"}, {"measurement": "hygroscopicity by DVS", "setting": "[2]; 20-90% RH ramp, 10% increments", "result": "non-hygroscopic"}, {"measurement": "change in crystalline form during DVS (XRPD post vs pre DVS)", "setting": "[2]; XRPD after DVS analysis", "result": "no change"}, {"measurement": "change in chemical impurity levels", "setting": "[3]", "result": "neither the AM(HS) or crystalline form (I-HS) exhibited a significant changes in chemical impurity levels"}]}
{"compound": "O=C(Nc1cnn2ccc(N3CCC[C@@H]3c3cc(F)ccc3F)nc12)N1CC[C@H](O)C1.O=S(=O)(O)O", "note": "[AM(HS), (S)—N-(5-((R)-2-(2,5-difluorophenyl)-pyrrolidin-1-yl)-pyrazolo[1,5-a]pyrimidin-3-yl)-3-hydroxypyrrolidine-1-carboxamide hydrogen sulfate]", "values": [{"measurement": "change in chemical impurity levels", "setting": "[3]", "result": "neither the AM(HS) or crystalline form (I-HS) exhibited a significant changes in chemical impurity levels"}]}
